We go through 15 molecules from patent US8530478B2, “Piperazine derivatives used as CAV2.2 calcium channel modulators” (Convergence Pharmaceuticals Limited, priority 2008, dated 2013).

Where a name gives a salt, the structure may show the parent alone.

The target of this test is T1, hCav2.2 (Homo sapiens, UniProt Q00975).
T1 construct: expressed in transfected cells; plasmids pCIN5-hCav2.2, pCIH-hCav β3, pCIP-α2δ1
In words: hCav2.2 assay (IonWorks planar array electrophysiology, HEK293 stable cell line). The test is classed as cell-based. Conditions: inhibition of current elicited by the 1st depolarising pulse; HEK293 cells expressing human Cav2.2 α/β3/α2δ1; tested in the form described in the Examples; read-out: mean pIC50 (tonic pIC50) (converted). How it is done: Compounds of the invention may be tested for in vitro biological activity in the hCav2.2 assay in accordance with the following studies:
Stable cell lines expressing the human Cav2.2 α (α1B) subunit, along with the human β3 and α2δ1 auxiliary subunits were created following sequential transfection and selection of human embryonic kidney (HEK293) cells. HEK293 cells were cultured in Dulbecco's modified Eagles media/F12 media (Invitrogen, Cat # 041-95750V) containing 10% foetal bovine serum, with added L-glutamine (2 mM; Invitrogen, Cat # 25030-024) and non-essential amino acids (5%; Invitrogen, Cat # 11140-035). Initially HEK293 cells were transfected with two plasmid vectors for expression of the hCav2.2 α subunit (pCIN5-hCav2.2 which carries a neomycin resistance marker) and the hCav β3 subunit (pCIH-hCav β3 which carries a hygromycin resistance marker). Clonal cell lines were isolated following selection in media supplemented with 0.4 mg ml^−1 Geneticin G418 (Invitrogen, Cat # 10131-027) and 0.1 mg ml^−1 hygromycin (Invitrogen, Cat # 10687-010). These clonal cell lines were assessed for Cav2.2 α/β3-mediated current expression using the IonWorks planar array electrophysiology technology (described below). A clonal line was identified that gave a reasonable level of functional Cav2.2 α/β3 current expression. This cell line was transfected with a plasmid vector for expression of the human α2δ1 subunit (pCIP-α2δ1 which carries a puromycin resistance marker) and clonal cell lines isolated following selection in media containing 0.62 μg ml^−1 puromycin (Sigma, Cat # P-7255), in addition to 0.4 mg ml^−1 Geneticin G418 and 0.1 mg ml^−1 hygromycin. Several cell lines were identified that gave robust levels of Cav2.2 α/β3/α2δ1-mediated current expression and one of these was selected for compound profiling. Expression of all three subunits within this cell line was continuously maintained by the inclusion of G418 (0.4 mg ml^−1), hygromycin (0.1 mg ml^−1) and puromycin (0.62 μg ml^−1). Cells were maintained at 37° C. in a humidified environment containing 5% CO2 in air. Cells were liberated from the T175 culture flasks for passage and harvesting using TrpLE (Invitrogen, Cat # 12604-013).
Cells were grown to 30-60% confluence in T175 flasks and maintained at 30° C. for 24 hrs prior to recording. Cells were lifted by removing the growth media, washing with Ca^2+ free PBS (Invitrogen, Cat #14190-094) and incubating with 3 ml of warmed (37° C.) TrpLE (Invitrogen, Cat # 12604-013) for 6 minutes. Lifted cells were suspended in 10 ml of extracellular buffer. Cell suspension was then placed into a 15 ml tube and centrifuged for 2 minutes at 700 rpm. After centrifugation, the supernatant was removed and the cell pellet was resuspended in 4.5 ml of extracellular solution.
Currents were recorded at room temperature (21-23° C.) using the IonWorks planar array electrophysiology technology (Molecular Devices Corp.). Stimulation protocols and data acquisition were carried out using a microcomputer (Dell Pentium 4). In order to determine planar electrode hole resistances (Rp), a 10 mV, 160 ms potential difference was applied across each hole. These measurements were performed before cell addition. After cell addition a seal test was performed prior to antibiotic (amphotericin) circulation to achieve intracellular access. Leak subtraction was conducted in all experiments by applying a 160 ms hyperpolarizing (10 mV) prepulse 200 ms before the test pulses to measure leak conductance. Test pulses stepping from the holding potential (VH) of −90 mV to +10 mV were applied for 20 ms and repeated 10 times at a frequency of 10 Hz. In all experiments, the test pulse protocol was performed in the absence (pre-read) and presence (post-read) of a compound. Pre- and post-reads were separated by a compound addition followed by a 3-3.5 min incubation. […]
(In general: The patch-clamp technique gives a direct electrical read-out from membranes.)

T1 sequence (Q00975 whole entry): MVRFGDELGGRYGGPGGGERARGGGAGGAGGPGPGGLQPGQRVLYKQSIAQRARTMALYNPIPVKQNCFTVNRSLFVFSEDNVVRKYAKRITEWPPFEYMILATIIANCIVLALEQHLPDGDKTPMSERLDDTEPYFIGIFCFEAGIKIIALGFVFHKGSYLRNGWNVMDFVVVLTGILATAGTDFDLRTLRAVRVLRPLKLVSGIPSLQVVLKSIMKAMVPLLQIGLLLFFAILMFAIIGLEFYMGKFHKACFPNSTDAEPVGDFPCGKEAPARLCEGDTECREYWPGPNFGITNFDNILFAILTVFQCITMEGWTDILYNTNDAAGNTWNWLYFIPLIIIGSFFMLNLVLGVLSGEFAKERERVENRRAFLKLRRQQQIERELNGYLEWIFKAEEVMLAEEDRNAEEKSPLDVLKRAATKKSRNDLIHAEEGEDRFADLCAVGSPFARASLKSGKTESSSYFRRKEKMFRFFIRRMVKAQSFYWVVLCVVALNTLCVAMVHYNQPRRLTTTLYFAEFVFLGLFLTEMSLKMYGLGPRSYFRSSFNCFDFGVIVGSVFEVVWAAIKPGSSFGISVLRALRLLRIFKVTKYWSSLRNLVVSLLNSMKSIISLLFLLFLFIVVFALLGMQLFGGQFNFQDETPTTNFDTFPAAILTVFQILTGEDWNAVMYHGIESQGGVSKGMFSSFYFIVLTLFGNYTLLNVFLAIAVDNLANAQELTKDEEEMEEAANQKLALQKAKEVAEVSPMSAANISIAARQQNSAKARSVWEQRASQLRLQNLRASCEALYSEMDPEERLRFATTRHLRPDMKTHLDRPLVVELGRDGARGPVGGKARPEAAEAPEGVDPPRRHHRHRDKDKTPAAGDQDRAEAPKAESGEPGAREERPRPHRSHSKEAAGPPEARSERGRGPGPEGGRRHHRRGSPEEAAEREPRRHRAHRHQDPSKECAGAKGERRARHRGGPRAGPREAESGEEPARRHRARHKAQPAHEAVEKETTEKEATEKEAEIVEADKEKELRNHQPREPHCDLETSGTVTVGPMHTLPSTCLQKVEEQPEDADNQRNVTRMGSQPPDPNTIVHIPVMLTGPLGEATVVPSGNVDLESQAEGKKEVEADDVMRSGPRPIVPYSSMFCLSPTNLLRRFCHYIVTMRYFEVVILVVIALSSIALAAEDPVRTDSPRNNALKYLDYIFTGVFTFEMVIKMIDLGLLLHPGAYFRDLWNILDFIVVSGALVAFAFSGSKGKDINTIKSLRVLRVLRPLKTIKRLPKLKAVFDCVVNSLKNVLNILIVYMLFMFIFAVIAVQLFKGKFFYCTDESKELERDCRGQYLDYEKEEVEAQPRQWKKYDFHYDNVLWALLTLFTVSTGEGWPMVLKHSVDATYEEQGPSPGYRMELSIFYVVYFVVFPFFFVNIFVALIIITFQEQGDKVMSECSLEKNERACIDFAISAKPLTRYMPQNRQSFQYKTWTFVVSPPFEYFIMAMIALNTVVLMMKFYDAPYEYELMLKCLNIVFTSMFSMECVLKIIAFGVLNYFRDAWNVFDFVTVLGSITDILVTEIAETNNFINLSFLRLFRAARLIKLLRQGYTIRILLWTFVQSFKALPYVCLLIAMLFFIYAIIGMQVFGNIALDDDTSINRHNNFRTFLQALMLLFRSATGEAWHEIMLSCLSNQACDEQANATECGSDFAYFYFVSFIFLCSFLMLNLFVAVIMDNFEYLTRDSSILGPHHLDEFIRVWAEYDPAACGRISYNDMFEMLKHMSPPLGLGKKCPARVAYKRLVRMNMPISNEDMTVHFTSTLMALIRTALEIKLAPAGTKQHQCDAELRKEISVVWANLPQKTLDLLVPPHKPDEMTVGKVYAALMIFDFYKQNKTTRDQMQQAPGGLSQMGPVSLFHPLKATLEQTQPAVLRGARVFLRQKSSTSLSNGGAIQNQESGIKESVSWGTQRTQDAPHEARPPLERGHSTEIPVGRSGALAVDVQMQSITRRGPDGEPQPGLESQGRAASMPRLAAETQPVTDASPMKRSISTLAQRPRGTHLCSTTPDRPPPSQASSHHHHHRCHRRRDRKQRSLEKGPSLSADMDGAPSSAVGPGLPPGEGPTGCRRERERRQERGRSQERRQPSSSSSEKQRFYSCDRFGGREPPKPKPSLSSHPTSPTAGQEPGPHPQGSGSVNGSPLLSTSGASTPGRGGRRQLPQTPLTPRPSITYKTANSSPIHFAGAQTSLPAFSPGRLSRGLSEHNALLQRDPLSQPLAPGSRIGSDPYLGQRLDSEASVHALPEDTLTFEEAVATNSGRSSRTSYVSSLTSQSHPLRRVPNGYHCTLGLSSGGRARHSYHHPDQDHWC
T1 sequence (P54284 whole entry partner): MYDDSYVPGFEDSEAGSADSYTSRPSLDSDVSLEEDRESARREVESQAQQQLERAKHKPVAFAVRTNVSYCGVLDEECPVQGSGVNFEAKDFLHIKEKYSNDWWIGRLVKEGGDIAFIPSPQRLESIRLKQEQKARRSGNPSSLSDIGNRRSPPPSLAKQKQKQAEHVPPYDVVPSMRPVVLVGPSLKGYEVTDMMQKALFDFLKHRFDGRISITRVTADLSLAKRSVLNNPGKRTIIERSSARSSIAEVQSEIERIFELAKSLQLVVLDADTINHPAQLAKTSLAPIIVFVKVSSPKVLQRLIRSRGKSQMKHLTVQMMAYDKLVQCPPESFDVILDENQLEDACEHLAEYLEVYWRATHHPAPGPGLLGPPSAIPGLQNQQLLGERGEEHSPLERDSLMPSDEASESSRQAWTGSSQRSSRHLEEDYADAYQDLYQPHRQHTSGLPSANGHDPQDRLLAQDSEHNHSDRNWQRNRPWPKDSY
T1 sequence (P54289 25-956 partner): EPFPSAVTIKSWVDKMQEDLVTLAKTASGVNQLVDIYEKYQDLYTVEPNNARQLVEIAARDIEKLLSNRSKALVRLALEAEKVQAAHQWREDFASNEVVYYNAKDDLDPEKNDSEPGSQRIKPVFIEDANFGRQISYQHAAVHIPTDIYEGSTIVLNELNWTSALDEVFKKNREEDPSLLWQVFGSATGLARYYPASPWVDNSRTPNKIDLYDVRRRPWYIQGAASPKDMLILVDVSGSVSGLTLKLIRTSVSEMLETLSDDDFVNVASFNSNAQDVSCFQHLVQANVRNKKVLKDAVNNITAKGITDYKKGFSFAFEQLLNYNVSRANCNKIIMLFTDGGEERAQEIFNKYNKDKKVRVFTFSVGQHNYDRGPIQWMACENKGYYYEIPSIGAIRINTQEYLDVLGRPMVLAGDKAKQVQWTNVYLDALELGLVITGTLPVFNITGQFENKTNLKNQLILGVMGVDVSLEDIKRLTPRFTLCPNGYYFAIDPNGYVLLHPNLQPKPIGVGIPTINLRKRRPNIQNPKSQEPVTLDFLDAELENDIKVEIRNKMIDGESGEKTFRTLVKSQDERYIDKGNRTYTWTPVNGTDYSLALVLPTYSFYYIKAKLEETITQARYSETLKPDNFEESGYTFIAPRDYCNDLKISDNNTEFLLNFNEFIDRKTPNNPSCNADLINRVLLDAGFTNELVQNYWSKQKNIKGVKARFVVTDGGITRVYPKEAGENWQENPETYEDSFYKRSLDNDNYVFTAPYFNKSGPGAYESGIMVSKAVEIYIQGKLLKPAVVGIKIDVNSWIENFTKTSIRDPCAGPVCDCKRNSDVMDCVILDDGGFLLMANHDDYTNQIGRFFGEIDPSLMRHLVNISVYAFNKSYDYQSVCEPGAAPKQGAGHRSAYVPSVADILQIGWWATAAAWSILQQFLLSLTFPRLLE
T1 sequence (P54289 957-1103 partner): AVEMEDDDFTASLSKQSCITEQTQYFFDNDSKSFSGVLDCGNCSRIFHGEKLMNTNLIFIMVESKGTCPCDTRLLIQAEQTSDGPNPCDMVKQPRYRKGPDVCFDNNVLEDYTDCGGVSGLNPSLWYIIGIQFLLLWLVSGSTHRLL

Take `Cc1cccnc1C(=O)N1CCN(S(=O)(=O)c2ccc(C(F)(F)F)cc2)[C@H](C)C1` [Example 13, (2R)-2-methyl-4-[(3-methyl-2-pyridinyl)carbonyl]-1-{[4-(trifluoromethyl)phenyl]sulfonyl}piperazine]: the IC50 was no less than 31.6 µM. Next, `C[C@@H]1CN(S(=O)(=O)c2ccc(Cl)cc2)CCN1C(=O)c1ccccn1` [Example 11, (2R)-4-[(4-chlorophenyl)sulfonyl]-2-methyl-1-(2-pyridinylcarbonyl)piperazine]: no less than 31.6 µM; `Cc1cccc(C(=O)N2CCN(S(=O)(=O)c3ccc(C(F)(F)F)cc3)CC2)n1` [Example 2, 1-[(6-Methyl-2-pyridinyl)carbonyl]-4-{[4-(trifluoromethyl)phenyl]sulfonyl}piperazine]: no less than 31.6 µM. As for `Cc1cc(C(=O)N2CCN(S(=O)(=O)c3ccc(C(F)(F)F)cc3)CC2)ccn1` [Example 9, 1-[(2-Methyl-4-pyridinyl)carbonyl]-4-{[4-(trifluoromethyl)phenyl]sulfonyl}piperazine], the IC50 is no less than 31.6 µM.

Turning to `Cc1cc(C(=O)N2CCN(S(=O)(=O)c3ccc(C#N)cc3)C[C@@H]2C)ccn1` [Example 15, 4-({(3S)-3-methyl-4-[(2-methyl-4-pyridinyl)carbonyl]-1-piperazinyl}sulfonyl)benzonitrile], the IC50 was no less than 31.6 µM. In the case of `C[C@H]1CN(S(=O)(=O)c2ccc(C#N)cc2)CCN1C(=O)c1ccccn1` [Example 12, 4-{[(3S)-3-methyl-4-(2-pyridinylcarbonyl)-1-piperazinyl]sulfonyl}benzonitrile] it was no less than 31.6 µM; in that of `Cc1cccnc1C(=O)N1CCN(S(=O)(=O)c2ccc(C(F)(F)F)cc2)C[C@@H]1C` [Example 1, (2S)-2-Methyl-1-[(3-methyl-2-pyridinyl)carbonyl]-4-{[4-(trifluoromethyl)phenyl]sulfonyl}piperazine hydrochloride], no less than 31.6 µM; in that of `O=C(c1cc(-c2ccccn2)ccn1)N1CCN(S(=O)(=O)c2ccc(C(F)(F)F)cc2)CC1` [Example 5, 2′-[(4-{[4-(Trifluoromethyl)phenyl]sulfonyl}-1-piperazinyl)carbonyl]-2,4′-bipyridine], no less than 31.6 µM. In the case of `O=C(c1ccncc1)N1CCN(S(=O)(=O)c2ccc(C(F)(F)F)cc2)CC1` [Example 8, 1-(4-Pyridinylcarbonyl)-4-{[4-(trifluoromethyl)phenyl]sulfonyl}piperazine] it was no less than 31.6 µM; in that of `Cc1cc(C(=O)N2CCN(S(=O)(=O)c3ccc(C(F)(F)F)cc3)C[C@@H]2C)ccn1` [Example 10, (2S)-2-methyl-1-[(2-methyl-4-pyridinyl)carbonyl]-4-{[4-(trifluoromethyl)phenyl]sulfonyl}piperazine formic acid salt (1:1)], no less than 31.6 µM.

Regarding `Cc1cccnc1C(=O)N1CCN(S(=O)(=O)c2ccc(C(F)(F)F)cc2)CC1` [Example 3, 1-[(3-Methyl-2-pyridinyl)carbonyl]-4-{[4-(trifluoromethyl)phenyl]sulfonyl}piperazine], the IC50 was no less than 31.6 µM. For `O=C(c1ccc(-c2ccccn2)cn1)N1CCN(S(=O)(=O)c2ccc(C(F)(F)F)cc2)CC1` [Example 7, 6′[(4-{[4-(Trifluoromethyl)phenyl]sulfonyl}-1-piperazinyl)carbonyl]-2,3′-bipyridine], the IC50 was no less than 31.6 µM. In the case of `Cc1cccnc1C(=O)N1CCN(S(=O)(=O)c2ccc(C(F)(F)F)cc2)[C@@H](C)C1` [Example 14, (2S)-2-methyl-4-[(3-methyl-2-pyridinyl)carbonyl]-1-{[4-(trifluoromethyl)phenyl]sulfonyl}piperazine] it was no less than 31.6 µM; in that of `C[C@H]1CN(C(=O)c2ccccn2)CCN1S(=O)(=O)c1ccc(Cl)cc1` [Example 6, (2S)-1-[(4-Chlorophenyl)sulfonyl]-2-methyl-4-(2-pyridinylcarbonyl)piperazine hydrochloride], no less than 31.6 µM. `C[C@H]1CN(S(=O)(=O)c2ccc(C(F)(F)F)cc2)CCN1C(=O)c1ccccn1` [Example 4, (2S)-2-methyl-1-(2-pyridinylcarbonyl)-4-{[4-(trifluoromethyl)phenyl]sulfonyl}piperazine formic acid salt (1:1)]: the IC50 is no less than 31.6 µM.
